Measurements published in patent US5985893A, “Physically stable solid form of a fluoroquinolone” (Pharmacia & Upjohn Company, priority 1996, dated 1999).
Converted amounts (≈) assume the structure as drawn. “And” between values parts separate entries of the source, which are not always exact repeats. Equal entries are not always repeated. “Also recorded” adds a separate entry of the source.

Legend:
Type in all cases: physicochemical
[1] = Stability of the solid forms to phase transformation (overall finding); details: variety of conditions
[2] = DSC and thermomicroscopy of solid-state transformations
Description: A Nikon POH-2 polarized light compound microscope with 10× objective is employed to view specimens mounted dry between a glass microscope slide and a no. 11/2 Cover slip. The samples are heated from ambient through 250° C. in a Mettler FP-80 microfurnace controlled by a Mettler FP-8 microprocessor. The heating rates may vary from 5-20° C./minute. The hot-stage experiments may be videotaped (Sony T120-HG and PM VHS tape) with a Hitachi VK-C350 Color Video Camera and a Panasonic AG-6200 Video Cassette Recorder.
Differential scanning calorimetry (DSC) is used to monitor enthalpy changes as a function of temperature during a linear temperature increase. A DuPont 910 DSC interfaced to a TA Instruments TA2100 computer may be used. The scan rate is 5° C./minute, and the instrument is operated with a 50-80 cc/min dry nitrogen purge. Samples are encapsulated in hermetically sealed aluminum sample pans with a pressure rating of about 2 bar. In some experiments, the lids of the pans are perforated to permit the passage of moisture and other volatile components.
Because calorimetric samples are occasionally affected by residual moisture, samples are sometimes studied with different initial water activities. Samples are weighed into tared DSC pans, and the open pans are permitted to equilibrate for several days in chambers of constant relative humidity at 25±1° C. These chambers are prepared from saturated salt solutions at 53% RH and 75% RH. At the end of the equilibration period, the chambers are opened, and the lids are placed over the samples to prevent re-equilibration with the ambient atmosphere. The samples are removed from the chambers, and the pans are quickly crimped closed.
Detailed description of FIG. 8. […] The heating rate is 5° C./minute. (a.) The sample is encapsulated in a standard DSC pan. (b.) The sample is encapsulated in a hermetically sealed DSC pan. The profiles are offset along the ordinate axis for comparison.
Detailed description of FIG. 10. […] The heating rate was 5° C./minute. (a.) The sample was equilibrated at 53% RH and encapsulated in a standard DSC pan. (b.)The sample was equilibrated at 53% RH and encapsulated in a hermetically sealed DSC pan. (c.) The sample was equilibrated at 75% RH and encapsulated in a hermetically sealed DSC pan. The profiles were offset along the ordinate axis for comparison.

[3] = Enthalpies of solution (solution calorimetry); details: Form III grown directly from solution
Description: The enthalpies of solution are determined in 50 mL of 0.1 M HCl at 25.0±0.05° C. Samples (0.10-0.11 g ) are weighed in 2 ml spherical, soft glass ampules and dried overnight in an evacuated desiccator over P2 O5. The ampules are removed, capped, weighed, and flame sealed. The enthalpies of solution are measured on a Tronac model 458 isoperibol solution calorimeter. The calorimetric accuracy of this instrument is within 1% based on calibration with tris(hydroxymethyl)-aminomethane (TRIS) in 0.1 N HCl.

[4] = Solubility of the quinolone, Forms I and III, in ethyl acetate; details: 20° C, two values given
Description: Bulk drug samples are prepared by dissolving the material in mobile phase at a final concentration of approximately 0.25 to 0.5 mg/ml. For solubility experiments, 100 mcl aliquots of ethyl acetate solutions are withdrawn and placed directly into HPLC autosampler vials. A gentle stream of nitrogen gas is used to evaporate the solvent in the sample vials. The solids are reconstituted with 0.5 ml of HPLC mobile phase prior to analysis.
Solubilities are measured in ethyl acetate. Five to ten milligrams of bulk drug are placed into an amber autoinjector vial, and 3.0 ml of ethyl acetate are added. The vials are capped and shaken for intervals up to 24 hours at room temperature using a Burrell model BB wrist-action shaker. Aliquots are withdrawn from the supernate after centrifugation. The final sample is taken from a quiescent solution which had not been shaken since the 24 hour timepoint.
The solubilities of Forms I and III were determined in ethyl acetate at room temperature; the solubility data for each form was gathered simultaneously, to assure that each form's solubility was measured under identical conditions. Ethyl acetate was employed as an aprotic solvent yielding fairly low equilibrium solubilities of the quinolone; ethyl acetate has been used to evaluate the difference in free energy of polymorphic forms of an antinociceptive drug, as described by K. Raghavan et al., J. Pharm. Biomed. Anal. Vol.12 (6), pp. 777-785 (1994). Under the assumption that the solubilities in TABLE S are consistent with the dilute solution limit, we can use the following expression to calculate the difference in Gibbs free energy between Form I and Form III: [formula] where "sx " is the solubility of Form x in a sufficiently dilute solution, R is the gas constant, and T is the absolute temperature. Using the data in Table 1, we find that the Gibbs free energy of Form III is lower than that of Form I by 7.7±0.2 kJ/mole.

[5] = Isothermal calorimetry (ITC) of Form I to Form III conversion; details: after ITC at 40° C
Description: Isothermal calorimetry (ITC) experiments are conducted using a model 2277 microcalorimeter made by ThermoMetric (see Suurkuusk, J.:Wadso, I. Chem. Scr. (1982) Vol. 20 pp. 155-163). The Digitam® version 2.1 software from Thermometric is used to display the data and to integrate the total heat obtained from the samples. Heat flow is monitored as a function of time at 60° C. and at 40° C. Both glass and stainless steel ampules are used to hold the solid samples and the reference material (quartz sand). Samples are thermally equilibrated for a period ranging from 15 minutes (glass ampules) to 1 hour (stainless steel ampules) prior to recording thermal data. The weight of the samples ranged from about 75 to 300 mg. Samples in glass ampules are equilibrated via the isopiestic method at 53% or 75% RH in chambers containing saturated solutions of sodium chloride or calcium nitrate tetrahydrate. The ampules are capped immediately after removing the samples. Other samples are equilibrated using "microhygrostats" containing small quantities of saturated salt solutions which are sealed within the ampules. This arrangement provided for nearly constant relative humidity as the crystal conversion proceeded.
We therefore studied the transformation of samples after equilibration at […] and 75% RH. […] HPLC analysis of the reaction product confirmed that the 60° C. ITC profiles contained negligible contributions from chemical decomposition.
A detailed explanation of FIG. 9 follows. […] Trace (a) is recorded from a sample of Form I equilibrated to 75% relative humidity before sealing the sample container and exposing it to the 60° C. conditions in the calorimeter. Trace (b) is recorded for a sample of Form I at 60° C., but a 75% relative humidity "microhygrostat" is placed in the sample container just prior to recording the data. The conversion is delayed from that of trace (a) due to the fact that the water must be transported from the microhygrostat to the Form I crystals during the experiment. Trace (c) is recorded for a sample of Form I at 60° C., but the sample was equilibrated at 53% relative humidity prior to sealing the sample container.
This trace results from placing a 75% relative humidity microhygrostat into the sample container just prior to recording the data. The sample is held at 40° C. in the calorimeter; the heat flow results as the Form I material converts to Form III.

[6] = Dynamic moisture sorption gravimetry (controlled atmosphere microbalance, 25° C)
Description: Dynamic Moisture Sorption Gravimetry
Dynamic moisture uptake is studied on the controlled atmosphere microbalance system at 25° C. About ten mg of sample are equilibrated on the balance for about 2 hours at 2.5% RH. The relative humidity surrounding the sample is increased in increments of 3% RH up to about 92% RH, at which point the RH is decremented in 3% steps to a final RH of about 2.5%. At each relative humidity, the sample is allowed to equilibrate until the mass is stable within 0.0005 mg over a ten minute period. The dry mass is assumed to correspond to the mass of the sample after the initial equilibration period. A controlled atmosphere microbalance is a balance system described by Bergren, M.S. Int. J. Pharm. (1994) Vol. 103, pp. 103-114.
(§1) Detailed description of FIG. 2. […] The ordinate represents the mass change relative to the lowest mass measurement. The abscissa is relative humidity. The circles represent points recorded after sequential increases in the relative humidity and the squares were recorded after decreases in the relative humidity. The horizontal line in the middle of the plot corresponds to the water content of the hypothetical monohydrate of the quinolone.
as §1, with “6.” for “2.”

| Temperature of Form II to Form III transformation ([2]; melt/recrystallization) | Enthalpy of Form III lower than Form I by [3] | Enthalpy of fusion ([2]; DSC) | Solubility, concentration ([4]; 1 hour, 60 min) | Solubility, concentration ([4]; 2 hours, 120 min) | Solubility, concentration ([4]; 4.5 hours, 270 min) | Solubility, concentration ([4]; 18 hours, 1080 min) | Solubility, concentration ([4]; 24 hours, 1440 min) | Solubility, concentration ([4]; 67.5 hours (not shaken after 24 hours), 4050 min) | Moisture content of recovered Form III crystals [5] | Moisture adsorbed ([6]; throughout the entire RH range) | Compound | Stability to transformation (in words) [1] | Moisture sorption behaviour (in words) ([6]; 25° C, sorption/desorption) | Stability to transformation (in words) ([1]; listed as methanolate) |
| --- | --- | --- | --- | --- | --- | --- | --- | --- | --- | --- | --- | --- | --- | --- |
| 166-171 °C |  |  |  |  |  |  |  |  |  |  | CN[C@@H](C)[C@@H]1CCN(c2c(F)cc3c(=O)c(C(=O)O)cn(C4CC4)c3c2OC)C1 [Form II, [S-(R*,S*)]-1-cyclopropyl-6-fluoro-1,4-dihydro-8-methoxy-7-[3-[1-(methylamino)ethyl]-1-pyrrolidinyl]-4-oxo-3-quinolinecarboxylic acid] | undergo phase transformations under a variety of conditions |  |  |
|  | about 8.8 kJ/mole | approximately 150 J/g | 60 µg/mL and 90 µg/mL | 110 µg/mL (≈ 273 µM) | 120 µg/mL (≈ 297 µM) | 140 µg/mL (≈ 347 µM) | 150 µg/mL (≈ 372 µM) | 140 µg/mL (≈ 347 µM) | 0.61% | less than 0.5% | CN[C@@H](C)[C@@H]1CCN(c2c(F)cc3c(=O)c(C(=O)O)cn(C4CC4)c3c2OC)C1 [Form III, [S-(R*,S*)]-1-cyclopropyl-6-fluoro-1,4-dihydro-8-methoxy-7-[3-[1-(methylamino)ethyl]-1-pyrrolidinyl]-4-oxo-3-quinolinecarboxylic acid] | stable to transformation | sorbs less moisture than Form I at all relative humidities; also recorded: very little hysteresis between the sorption and desorption profiles, and the sample exhibited no evidence of recrystallization and/or hydrate Formation |  |
|  |  |  |  |  |  |  |  |  |  |  | CN[C@@H](C)[C@@H]1CCN(c2c(F)cc3c(=O)c(C(=O)O)cn(C4CC4)c3c2OC)C1 [Form MS, [S-(R*,S*)]-1-cyclopropyl-6-fluoro-1,4-dihydro-8-methoxy-7-[3-[1-(methylamino)ethyl]-1-pyrrolidinyl]-4-oxo-3-quinolinecarboxylic acid] | undergo phase transformations under a variety of conditions |  | desolvates to yield Form I under such mild conditions that solvent is not normally retained in the product crystals |
